In publication PMC7408095 (Pharmaceutics, 2020):
Like-named read-outs stand apart in the source and are kept apart here. Values belong to the molecule of their own block, whether it stands above or below them.

Tests used:
[1] = rat, in vivo, po, 20 mg/kg
Experimental: The concentration of each of the working solutions was 10 μg/mL. The sample preparation involved liquid-liquid extraction. […] The analytes were separated in a Zorbax Plus C18 column (100 × 2.1 mm; 3.5 μm) (Agilent Technologies, Santa Clara, California, USA) at a column temperature of 40 °C. The mobile phase was a mixture of de-ionized water (A) and acetonitrile (B), both containing 0.1% (v/v) formic acid. […] The mobile phase flow was set to 0.3 mL/min. The eluent from the HPLC column was introduced directly to the MS interface, using electrospray ionization in the positive ion mode. The MS parameters were as follows: interface temperature, 350 °C; DL temperature, 250 °C; heat block temperature, 400 °C; nebulizing gas flow, 2 L/min; and drying gas flow, 15 L/min. The electrospray needle voltage was 3.5 kV. The specific transitions for the analytes were monitored using the multiple reaction monitoring (MRM) mode.

[2] = rat, in vivo, po, 100 mg/kg
Text: The Phoenix® WinNonlin version 8.0 software (Certara, Princeton, New Jersey, USA) was used for the calculation of the following pharmacokinetic parameters: • The elimination rate constant (ke); • The absorption rate constant (ka); • The elimination half-life (t1/2); • The maximum plasma concentration (Cmax); • The time to reach the Cmax (tmax); • The total area under the concentration–time curve (AUC0-t and AUC0--∞); • The apparent plasma drug clearance (Cl/F); • The apparent volume of distribution (Vd/F).

[3] = cited from earlier work
[4] = in vivo; settings: male, Wistar, rat, plasma, po, 100 mg/kg
[5] = Plasma pharmacokinetics of metformin in rats (HPLC-UV)
[6] = Adverse effects of the doses used in healthy rats; type: in vivo
[7] = cited from earlier work; remark: listed apart in the source
[8] = Plasma pharmacokinetics of sorafenib and sorafenib N-oxide in rats (HPLC-UV); settings: for AUC0-t / AUC(0-inf) / Cmax / Vd/F / k el / half-life: male, Wistar, rat, plasma, po, 100 mg/kg; for AUC0-t / AUC(0-inf) / Cmax / Vd/F / k el / ka: rat plasma; for AUC(0-inf): AUC0-∞; for k el: kel; for half-life: t1/2, rat plasma;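 for all read-outs here: pharmacokinetic parameters were computed with Phoenix WinNonlin 8.0 software from the plasma concentration–time curve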
[9] = Plasma pharmacokinetics of atorvastatin, 2-OH AT and 4-OH AT in rats (UPLC-MS/MS); settings: for AUC0-t / AUC0-∞ / Cmax / metabolite/atorvastatin Cmax ratio: rat plasma
[10] = rat, in vivo, 20 mg/kg; cited from earlier work
[11] = rat plasma, single oral sorafenib 100 mg/kg + metformin 100 mg/kg b.w. (IISOR+MET group)
[12] = single oral sorafenib 100 mg/kg + atorvastatin 20 mg/kg b.w. (ISOR+AT group)
[13] = single oral sorafenib 100 mg/kg + metformin 100 mg/kg b.w. (IISOR+MET group)
[14] = single oral sorafenib 100 mg/kg b.w. alone (IIISOR group)
[15] = rats, IISOR+MET group vs IIISOR group
[16] = rats, ISOR+AT group vs IIISOR group
[17] = single oral atorvastatin 20 mg/kg b.w. alone (IVAT group)
[18] = rats, ISOR+AT group vs IVAT group

AUC0-t [2]: 4.10 ± 1.56 (38.1) µg × h/mL
AUC0-∞ [2]: 8.61 ± 2.19 (25.4) µg × h/mL
k el [2]: 0.016 ± 0.010 (60.9) h^−1
tmax [2]: 16.38 ± 8.21 (50.1) h
SMILES: CNC(=O)c1cc(Oc2ccc(NC(=O)Nc3ccc(Cl)c(C(F)(F)F)c3)cc2)cc[n+]1[O-] [Sorafenib N-oxide, sorafenib N-oxide]

AUC0-t [8, 12]: 105000 ± 18900 ng·h/mL
AUC0-t [8, 13]: 35200 ± 8360 ng·h/mL
AUC0-t [8, 14]: 62800 ± 16100 ng·h/mL
AUC(0-inf) [8, 12]: 106000 ± 19300 ng·h/mL
AUC(0-inf) [8, 13]: 36800 ± 8960 ng·h/mL
Cmax [8, 12]: 3660 ± 1210 ng/mL
Cmax [8, 13]: 1270 ± 380 ng/mL
Vd/F [8, 12]: 9.98 ± 2.48 L
Vd/F [8, 13]: 34.1 ± 18.7 L
Vd/F [8, 14]: 25.3 ± 11.6 L
k el [8, 12]: 1.39e-05 s⁻¹
k el [8, 13]: 1.39e-05 s⁻¹
k el [8, 14]: 9.72e-06 s⁻¹
half-life [8, 12]: 14.7 ± 3.17 h
half-life [8, 13]: 16.3 ± 3.72 h
half-life [8, 14]: 21.9 ± 7.79 h
ka [8, 12]: 0.20 ± 0.11 (53.2) h^−1
ka [8, 13]: 0.35 ± 0.23 (66.8) h^−1
ka [8, 14]: 0.74 ± 0.31 (42.5) h^−1
decrease in AUC0-t in the presence of metformin [8, 15]: 44.0%
decrease in AUC0-∞ in the presence of metformin [8, 15]: 45.1%
decrease in ka in the presence of metformin [8, 15]: 0.5 fold
increase in clearance in the presence of metformin [8, 15]: 76.3%
decrease in ka with co-administered atorvastatin [8, 16]: 73.0%
decrease in t1/2 with co-administered atorvastatin [8, 16]: 0.3 fold
increase in AUC0-t with co-administered atorvastatin [8, 16]: 66.6%
increase in AUC0-∞ with co-administered atorvastatin [8, 16]: 58.7%
increase in AUC with co-administered atorvastatin (abstract) [8, 16]: 66.6%
increase in Cmax with co-administered atorvastatin [8, 16]: 134.6%
increase in kel with co-administered atorvastatin [8, 16]: 42.9%
increase in tmax with co-administered atorvastatin [8, 16]: 116.9%
SMILES: CNC(=O)c1cc(Oc2ccc(NC(=O)Nc3ccc(Cl)c(C(F)(F)F)c3)cc2)ccn1 [Sorafenib, sorafenib]
decrease in sorafenib absorption with a high-fat diet ([7]; clinically important interaction): 30%
share in the systemic circulation ([7]; sorafenib unchanged or as sorafenib N-oxide): 70−85%
protein-bound form in plasma [3]: 99.5%

Further lines, the molecule ahead of its results:

SMILES: CC(C)c1c(C(=O)Nc2ccc(O)cc2)c(-c2ccccc2)c(-c2ccc(F)cc2)n1CC[C@@H](O)C[C@@H](O)CC(=O)O [4-OH AT, 4-hydroxy atorvastatin]
AUC0-t [1]: 14.63 ± 5.57 (38.1) ng × h/mL
AUC0-∞ [1]: 19.22 ± 7.06 (36.7) ng × h/mL

SMILES: CN(C)C(=N)N=C(N)N [metformin]
plasma protein-bound fraction [3]: negligible
AUC0-t [4]: 3830 ± 1230 ng·h/mL
AUC(0-inf) [4]: 7900 ± 1930 ng·h/mL
Cmax [4]: 500 ± 290 ng/mL
MRT last [4]: 9.81 ± 1.27 h
Vd/F [4]: 228 ± 91 L
k el [4]: 8.33e-06 s⁻¹
tmax [4]: 1.09 ± 0.57 h
Cl/F ([5]; rat plasma, single oral metformin 100 mg/kg b.w. alone (VMET group)): 6.31 ± 1.48 (23.5) L/h
AUC0-t [5, 11]: 3.64 ± 1.15 (31.6) µg × h/mL
AUC0-∞ [5, 11]: 10.88 ± 4.50 (41.4) µg × h/mL
Cl/F [5, 11]: 5.50 ± 3.08 (56.0) L/h
Cmax [5, 11]: 0.46 ± 0.26 (56.5) µg/mL
MRT0-t [5, 11]: 8.65 ± 2.22 (25.7) h
Vd/F [5, 11]: 297.89 ± 133.23 (44.7) L
k el [5, 11]: 0.03 ± 0.04 (133.3) h^−1
tmax [5, 11]: 1.88 ± 0.23 (12.2) h
increase in tmax with co-administered sorafenib ([5]; rats, IISOR+MET group vs VMET group): 71.39%
adverse effects ([6]; 100 mg/kg single oral dose): did not cause any adverse effects

SMILES: CC(C)c1c(C(=O)Nc2ccccc2O)c(-c2ccccc2)c(-c2ccc(F)cc2)n1CCC(O)CC(O)CC(=O)O (stereo not drawn) [2-OH AT, 2-hydroxy atorvastatin]
AUC0-t [9, 17]: 617.32 ± 277.54 (45.0) ng × h/mL
AUC0-∞ [9, 17]: 695.68 ± 297.16 (42.7) ng × h/mL
Cmax [9, 17]: 175.20 ± 116.62 (66.6) ng/mL
metabolite/atorvastatin Cmax ratio [9, 17]: 2.35 ± 1.12 (47.6) ng/mL
AUC0-t [9, 12]: 958.91 ± 342.91 (35.8) ng × h/mL
AUC0-∞ [9, 12]: 993.97 ± 343.87 (34.6) ng × h/mL
Cmax [9, 12]: 185.82 ± 90.16 (48.5) ng/mL
metabolite/atorvastatin Cmax ratio [9, 12]: 2.43 ± 1.06 (43.6) ng/mL
change in the 2-OH AT/atorvastatin ratio for AUC0-t [9, 18]: −19.4%
change in the 2-OH AT/atorvastatin ratio for AUC0-∞ [9, 18]: −26.0%
increase in AUC caused by sorafenib (abstract) [9, 18]: 55.3%

SMILES: CC(C)c1c(C(=O)Nc2ccccc2)c(-c2ccccc2)c(-c2ccc(F)cc2)n1CC[C@@H](O)C[C@@H](O)CC(=O)O [Atorvastatin, atorvastatin]
safety [10]: safe
adverse effects ([6]; 20 mg/kg single oral dose): did not cause any adverse effects
